Consider three molecules from patent EP0326329B1, “Quinazoline derivatives useful as insecticides” (Dow AgroSciences LLC, priority 1988, dated 1989).

One assay concerns Pseudoperonospora cubensis (downy mildew). The assay is described as follows: Greenhouse Test 1, foliar spray fungicide screen (DOWN MDEW), host squash. Particulars: disease control rating, 400 ppm (+++ at 100 ppm). The class given is in vivo.
On to `Brc1ccc2ncnc(NCCc3ccc(Oc4ccccc4)cc3)c2c1` [Example 177, 6-bromo-N-[2-(4-phenoxyphenyl)ethyl]-4-quinazolinamine], for which the “DOWN MDEW” value is recorded as “+++ (+++ = 90-100% control at 100 ppm)”.

In the case of `CC(C)(C)c1ccc(CCCCOc2ncnc3ccccc23)cc1` [Example 178, 4-[4-[4-(t-butyl)phenyl]butoxy]quinazoline], the “DOWN MDEW” value is given as “+ (+ = 20-89% control at 400 ppm)”.

Consider `CCCCOc1ccc(CCOc2ncnc3ccccc23)cc1` [Example 180, 4-[2-(4-butoxyphenyl)ethoxy]quinazoline], for which the “DOWN MDEW” value was “+++ (+++ = 90-100% control at 100 ppm)”.

The subject of another assay is melon aphids (Aphis gossypii Glover). The assay is described as follows: Mite/insect screen, sprayed squash cotyledons (MA). The class given is in vivo. The settings on record: Aphis gossypii, percent mortality; spray rate 200 ppm; read-out: MA RESULTS %. The method in brief:
(§1)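 Acetone/alcohol (50:50) + emulsifier blends 23 g/L and 13 g/L; water dilution to test concs. Spray both leaf surfaces to runoff, dry 1 h. For armyworm, 2 excised uninfested leaves into Petri dish with larvae. Readout: % mortality, phytotoxicity.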
With `Brc1ccc2ncnc(NCCc3ccc(Oc4ccccc4)cc3)c2c1` [Example 177, 6-bromo-N-[2-(4-phenoxyphenyl)ethyl]-4-quinazolinamine], the mortality at 200 ppm stood at 80%.

In the case of `CC(C)(C)c1ccc(CCCCOc2ncnc3ccccc23)cc1` [Example 178, 4-[4-[4-(t-butyl)phenyl]butoxy]quinazoline], the mortality at 200 ppm is 80%.

As for `CCCCOc1ccc(CCOc2ncnc3ccccc23)cc1` [Example 180, 4-[2-(4-butoxyphenyl)ethoxy]quinazoline], the mortality at 200 ppm was 50%.

The assay is the same for the next values; noted with them: Aphis gossypii, percent mortality; spray rate 400 ppm; read-out: MA RESULTS %.
Turning to `Brc1ccc2ncnc(NCCc3ccc(Oc4ccccc4)cc3)c2c1` [Example 177, 6-bromo-N-[2-(4-phenoxyphenyl)ethyl]-4-quinazolinamine], the mortality at 400 ppm was determined as 50%.

As to `CC(C)(C)c1ccc(CCCCOc2ncnc3ccccc23)cc1` [Example 178, 4-[4-[4-(t-butyl)phenyl]butoxy]quinazoline], the mortality at 400 ppm was determined as 100%.

On to `CCCCOc1ccc(CCOc2ncnc3ccccc23)cc1` [Example 180, 4-[2-(4-butoxyphenyl)ethoxy]quinazoline], for which the mortality at 400 ppm is 100%.

In the next assay the test system is Southern corn rootworm (Diabrotica undecimpuctata howardi Barber). The assay is described as follows: Mite/insect screen, soil treatment (CRW). The class given is in vivo. Particulars: Diabrotica; percent mortality; soil treatment, CRW rate 12.00 ppm; read-out: CRW RESULTS %. The procedure, abridged:
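Compounds dissolved in acetone/alcohol (50:50) with Toximul R/S emulsifiers, diluted with water. Soil (15 g, with presoaked corn seed) treated with 1 mL test solution, dried 6–12 h, then five 2–3 instar larvae added; held at 23°C. Percent mortality and phytotoxicity scored after standard exposure periods.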
For the molecule `Brc1ccc2ncnc(NCCc3ccc(Oc4ccccc4)cc3)c2c1` [Example 177, 6-bromo-N-[2-(4-phenoxyphenyl)ethyl]-4-quinazolinamine], the mortality at 12 ppm came out at 0%.

In the case of `CC(C)(C)c1ccc(CCCCOc2ncnc3ccccc23)cc1` [Example 178, 4-[4-[4-(t-butyl)phenyl]butoxy]quinazoline], the mortality at 12 ppm was 0%.

Take `CCCCOc1ccc(CCOc2ncnc3ccccc23)cc1` [Example 180, 4-[2-(4-butoxyphenyl)ethoxy]quinazoline]: the mortality at 12 ppm turned out to be 0%.

The assay is the same for the next values; noted with them: Diabrotica; percent mortality; soil treatment, CRW rate 24.00 ppm; read-out: CRW RESULTS %.
For the molecule `Brc1ccc2ncnc(NCCc3ccc(Oc4ccccc4)cc3)c2c1` [Example 177, 6-bromo-N-[2-(4-phenoxyphenyl)ethyl]-4-quinazolinamine], the mortality at 24 ppm was determined as 0%.

Regarding `CC(C)(C)c1ccc(CCCCOc2ncnc3ccccc23)cc1` [Example 178, 4-[4-[4-(t-butyl)phenyl]butoxy]quinazoline], the mortality at 24 ppm is 0%.

On to `CCCCOc1ccc(CCOc2ncnc3ccccc23)cc1` [Example 180, 4-[2-(4-butoxyphenyl)ethoxy]quinazoline], for which the mortality at 24 ppm amounted to 0%.

For a further assay, the system named is southern armyworm (Spodopetra eridania Cramer). The experiment in a line: Mite/insect screen, sprayed squash leaves (SAW). The class given is in vivo. The settings on record: Spodoptera eridania, percent mortality; spray rate 200 ppm; read-out: SAW RESULTS %. The method in brief:
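Compounds were dissolved in 50:50 acetone/alcohol containing sulfonate/nonionic emulsifier blends (23 g and 13 g per liter) and diluted with water to test concentrations. Leaves were sprayed on both surfaces to runoff and dried for one hour. Percent mortality and phytotoxicity were scored after standard exposure periods.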
`Brc1ccc2ncnc(NCCc3ccc(Oc4ccccc4)cc3)c2c1` [Example 177, 6-bromo-N-[2-(4-phenoxyphenyl)ethyl]-4-quinazolinamine]: the mortality at 200 ppm turned out to be 0%.

Take `CC(C)(C)c1ccc(CCCCOc2ncnc3ccccc23)cc1` [Example 178, 4-[4-[4-(t-butyl)phenyl]butoxy]quinazoline]: the mortality at 200 ppm was determined as 0%.

On to `CCCCOc1ccc(CCOc2ncnc3ccccc23)cc1` [Example 180, 4-[2-(4-butoxyphenyl)ethoxy]quinazoline], for which the mortality at 200 ppm was found to be 0%.

Still in this assay, the particulars now being: Spodoptera eridania, percent mortality; spray rate 400 ppm; read-out: SAW RESULTS %.
For `Brc1ccc2ncnc(NCCc3ccc(Oc4ccccc4)cc3)c2c1` [Example 177, 6-bromo-N-[2-(4-phenoxyphenyl)ethyl]-4-quinazolinamine], the mortality at 400 ppm was determined as 0%.

Regarding `CC(C)(C)c1ccc(CCCCOc2ncnc3ccccc23)cc1` [Example 178, 4-[4-[4-(t-butyl)phenyl]butoxy]quinazoline], the mortality at 400 ppm was found to be 0%.

`CCCCOc1ccc(CCOc2ncnc3ccccc23)cc1` [Example 180, 4-[2-(4-butoxyphenyl)ethoxy]quinazoline]: the mortality at 400 ppm was 100%.

The test system of a further assay is Pyricularia oryzae (rice blast).
Experiment: not given
The class given is in vivo. The settings on record: disease control rating, foliar spray, host rice; 400 ppm (+++ at 100 ppm).
`Brc1ccc2ncnc(NCCc3ccc(Oc4ccccc4)cc3)c2c1` [Example 177, 6-bromo-N-[2-(4-phenoxyphenyl)ethyl]-4-quinazolinamine]: the “RICE BLAST” value is “+++ (+++ = 90-100% control at 100 ppm)”.

In the case of `CC(C)(C)c1ccc(CCCCOc2ncnc3ccccc23)cc1` [Example 178, 4-[4-[4-(t-butyl)phenyl]butoxy]quinazoline], the “RICE BLAST” value is “- (- = 0-19% control at 400 ppm)”.

Take `CCCCOc1ccc(CCOc2ncnc3ccccc23)cc1` [Example 180, 4-[2-(4-butoxyphenyl)ethoxy]quinazoline]: the “RICE BLAST” value was “+++ (+++ = 90-100% control at 100 ppm)”.

The next assay concerns Twospotted spider mites (Tetranychus urticae Koch). The assay is described as follows: Mite/insect screen, sprayed squash cotyledons (SM). The class given is in vivo. Particulars: Tetranychus urticae, percent mortality; spray rate 200 ppm; read-out: SM RESULTS %. The procedure, abridged:
as §1
For the molecule `Brc1ccc2ncnc(NCCc3ccc(Oc4ccccc4)cc3)c2c1` [Example 177, 6-bromo-N-[2-(4-phenoxyphenyl)ethyl]-4-quinazolinamine], the mortality at 200 ppm was 0%.

In the case of `CC(C)(C)c1ccc(CCCCOc2ncnc3ccccc23)cc1` [Example 178, 4-[4-[4-(t-butyl)phenyl]butoxy]quinazoline], the mortality at 200 ppm was 40%.

On to `CCCCOc1ccc(CCOc2ncnc3ccccc23)cc1` [Example 180, 4-[2-(4-butoxyphenyl)ethoxy]quinazoline], for which the mortality at 200 ppm is 80%.

The assay is the same for the next values; noted with them: Tetranychus urticae, percent mortality; spray rate 400 ppm; read-out: SM RESULTS %.
Regarding `Brc1ccc2ncnc(NCCc3ccc(Oc4ccccc4)cc3)c2c1` [Example 177, 6-bromo-N-[2-(4-phenoxyphenyl)ethyl]-4-quinazolinamine], the mortality at 400 ppm came out at 50%.

In the case of `CC(C)(C)c1ccc(CCCCOc2ncnc3ccccc23)cc1` [Example 178, 4-[4-[4-(t-butyl)phenyl]butoxy]quinazoline], the mortality at 400 ppm is 100%.

Consider `CCCCOc1ccc(CCOc2ncnc3ccccc23)cc1` [Example 180, 4-[2-(4-butoxyphenyl)ethoxy]quinazoline], for which the mortality at 400 ppm was found to be 100%.

The next assay relates to Erysiphe graminis tritici (powdery mildew). The experiment in a line: Greenhouse Test 1, foliar spray fungicide screen (POWD MDEW), host wheat. The class given is in vivo. Particulars: disease control rating, 400 ppm (+++ at 100 ppm).
Regarding `Brc1ccc2ncnc(NCCc3ccc(Oc4ccccc4)cc3)c2c1` [Example 177, 6-bromo-N-[2-(4-phenoxyphenyl)ethyl]-4-quinazolinamine], the “POWD MDEW” value is listed as “- (- = 0-19% control at 400 ppm)”.

Turning to `CC(C)(C)c1ccc(CCCCOc2ncnc3ccccc23)cc1` [Example 178, 4-[4-[4-(t-butyl)phenyl]butoxy]quinazoline], the “POWD MDEW” value is “++ (++ = 90-100% control at 400 ppm)”.

Consider `CCCCOc1ccc(CCOc2ncnc3ccccc23)cc1` [Example 180, 4-[2-(4-butoxyphenyl)ethoxy]quinazoline], for which the “POWD MDEW” value is recorded as “+++ (+++ = 90-100% control at 100 ppm)”.

The next assay concerns Puccinia recondita tritici (leaf rust). The experiment in a line: Greenhouse Test 1, foliar spray fungicide screen (LEAF RUST), host wheat. The settings on record: disease control rating, 400 ppm (+++ at 100 ppm). The class given is in vivo.
As for `Brc1ccc2ncnc(NCCc3ccc(Oc4ccccc4)cc3)c2c1` [Example 177, 6-bromo-N-[2-(4-phenoxyphenyl)ethyl]-4-quinazolinamine], the “LEAF RUST” value was “+++ (+++ = 90-100% control at 100 ppm)”.

Regarding `CC(C)(C)c1ccc(CCCCOc2ncnc3ccccc23)cc1` [Example 178, 4-[4-[4-(t-butyl)phenyl]butoxy]quinazoline], the “LEAF RUST” value is listed as “- (- = 0-19% control at 400 ppm)”.

Consider `CCCCOc1ccc(CCOc2ncnc3ccccc23)cc1` [Example 180, 4-[2-(4-butoxyphenyl)ethoxy]quinazoline], for which the “LEAF RUST” value is given as “+++ (+++ = 90-100% control at 100 ppm)”.

The next assay has as its system Botrytis cinerea (gray mold). The experiment in a line: Greenhouse Test 1, foliar spray fungicide screen (GRAY MOLD), host grape berries. Particulars: disease control rating, 400 ppm (+++ at 100 ppm). The class given is in vivo.
In the case of `Brc1ccc2ncnc(NCCc3ccc(Oc4ccccc4)cc3)c2c1` [Example 177, 6-bromo-N-[2-(4-phenoxyphenyl)ethyl]-4-quinazolinamine], the “GRAY MOLD” value is “+ (+ = 20-89% control at 400 ppm)”.

In the case of `CC(C)(C)c1ccc(CCCCOc2ncnc3ccccc23)cc1` [Example 178, 4-[4-[4-(t-butyl)phenyl]butoxy]quinazoline], the “GRAY MOLD” value is on record as “+ (+ = 20-89% control at 400 ppm)”.

Consider `CCCCOc1ccc(CCOc2ncnc3ccccc23)cc1` [Example 180, 4-[2-(4-butoxyphenyl)ethoxy]quinazoline], for which the “GRAY MOLD” value is reported as “- (- = 0-19% control at 400 ppm)”.
